Data: paper doi:10.1101/2025.09.30.679521v1, “Crystallographic characterisation and development of bi-substrate inhibitors of coronavirus nsp14 methyltransferase” (biorxiv, 2025)
Converted amounts (≈) assume the structure as drawn. Read-outs that look alike come from different tables or passages of the source.

Key:
physchem [1] = assay: physchem
SARS-CoV-2 nsp14 = target: T1, SARS-CoV-2 nsp14 (Severe acute respiratory syndrome coronavirus 2, UniProt P0DTD1); assay: RapidFire MS methyltransferase assay; format: biochemical
T1 construct: gene rep
From the text: RapidFire MS methyltransferase assay on SARS-CoV-2 nsp14

human RNMT [2] = target: T2, human RNMT (Homo sapiens, UniProt O43148); assay: biochemical; set-up: human RNMT methyltransferase inhibition
in vitro [3] = assay: in vitro; set-up: mouse liver microsomal stability; settings: liver microsomes; Mouse liver microsomes; read-out: Mouse liver Mic T1/2 / min
From the text: We initiated our structure-activity relationship (SAR) studies by investigating various replacements for the benzothiazole group, compounds 2-17, Table 1. […] Relatively flat SAR is observed across this subset of compounds, indeed a 6,5 or 6,6 aromatic system with the appropriate connectivity as compound 1 display relatively similar potencies. […] In general, the mouse microsomal clearance was rather low for this set of molecules, with no significant instabilities introduced, with perhaps the exception of compound 4. With no significant advantages in either potency or mouse microsomal clearance (Table S2) identified for this subset, the benzothiazole was taken forward into subsequent SAR studies. Table 2. Enzymatic inhibition against SARS-CoV-2 nsp14, human RNMT, CHI-logD and mouse microsomal stability.

human RNMT [4] = target: T2, human RNMT; assay: RNMT methyltransferase assay (Gray et al.); format: biochemical
From the text: RNMT methyltransferase assay (Gray et al.) on human RNMT

HCoV-NL63 nsp14 = HCoV-NL63 nsp14 (Human coronavirus NL63, UniProt P0C6X5); assay: RapidFire MS methyltransferase assay; format: biochemical
From the text: RapidFire MS methyltransferase assay on HCoV-NL63 nsp14

physchem [5] = assay: physchem; remark: listed apart in the source
in vitro [6] = assay: in vitro; set-up: MDCK permeability; settings: dog, MDCK
HCoV-229E nsp14 = target: T3, HCoV-229E nsp14 (Human coronavirus 229E, UniProt P0C6X1); assay: RapidFire MS methyltransferase assay; format: biochemical
T3 construct: gene rep
From the text: RapidFire MS methyltransferase assay on HCoV-229E nsp14

in vitro [7] = assay: in vitro; set-up: MDCK permeability; settings: dog, MDCK; remark: listed apart in the source
MERS-CoV nsp14 = target: T4, MERS-CoV nsp14 (Betacoronavirus England 1, UniProt K9N7C7); assay: biochemical
T4 construct: gene rep

physchem [8] = assay: physchem; set-up: solubility
From the text: Table 5. Selected compounds with cellular potency. The apparent EC50 values in the cytopathic effect assay are shown, along with the toxicity effect CC50

SARS-CoV-2 [9] = assay: microbe, parasite or virus in culture; set-up: species or system Vero E6; antiviral cytopathic effect assay with SARS-CoV-2 in Vero E6 cells; settings: Severe acute respiratory syndrome coronavirus 2, Vero C1008; read-out: CPE assay EC50 /
in vitro [10] = assay: in vitro; set-up: cytotoxicity alongside the cytopathic effect assay in Vero E6 cells; settings: african green monkey, vero e6 cells; read-out: CPE assay CC50 /
From the text: This may be due to the increased rigidity of the alkene linkage and a lower entropic penalty upon binding. As a matched pair to the previously reported compounds 32 and 34, we selected potent and stable compound 33 and 40, with the same change of adenosine base, Base A, to Base B and measure the antiviral activity. […] One potential reason for this disparity may be attributed to the differing experimental conditions used in the two assays and requires further investigation. […] Therefore, consistent with the body of the literature, we observed no significant antiviral activity against SARS-CoV-2 for this class of compounds. We hypothesise that as the compounds bind in both the SAM and the RNA pocket of nsp14 and are therefore competitive with both substrates, in the cellular context there is a significant competition with intracellular SAM/SAH and the viral RNA, which is likely present at a higher concentration than used in the biochemical assay. The concentration of SAM used in the SARS-CoV-2 nsp14 assay is 1.0 µM and although measurements of SAM or SAH concentrations in Vero E6 cells haven’t been reported, others have reported intracellular concentrations of SAM of 354 µM in other cell lines.[30] The concentration of the viral RNA substrate in cellulo and increased effective concentrations from the proximity of other nsp proteins involved in viral RNA production may also play a role that is further not captured in the bioche Table 5. Selected compounds with cellular potency. The apparent EC50 values in the cytopathic effect assay are shown, along with the toxicity effect CC50

SARS-CoV-2 [11] = assay: microbe, parasite or virus in culture; set-up: species or system Vero E6; antiviral cytopathic effect assay with SARS-CoV-2 in Vero E6 cells; settings: Severe acute respiratory syndrome coronavirus 2, Vero C1008; read-out: CPE assay EC50 /; remark: listed apart in the source
physchem [12] = assay: physchem; remark: listed apart in the source
[13] = SAM and RNA cap substrate at KM (SAM 1.0 µM), read-out: IC50

T2 sequence (O43148 whole entry): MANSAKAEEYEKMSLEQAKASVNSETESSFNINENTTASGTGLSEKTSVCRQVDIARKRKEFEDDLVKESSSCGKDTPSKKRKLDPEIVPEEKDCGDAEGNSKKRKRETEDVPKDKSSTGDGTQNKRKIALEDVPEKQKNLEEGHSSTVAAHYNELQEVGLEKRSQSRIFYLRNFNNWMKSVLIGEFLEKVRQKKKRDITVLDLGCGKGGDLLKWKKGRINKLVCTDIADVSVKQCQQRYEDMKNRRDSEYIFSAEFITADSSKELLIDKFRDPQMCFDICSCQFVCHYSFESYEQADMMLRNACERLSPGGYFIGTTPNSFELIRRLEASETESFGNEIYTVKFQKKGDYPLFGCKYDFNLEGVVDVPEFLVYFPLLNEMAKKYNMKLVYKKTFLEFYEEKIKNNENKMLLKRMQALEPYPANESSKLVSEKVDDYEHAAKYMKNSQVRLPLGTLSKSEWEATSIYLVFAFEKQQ
T3 sequence (P0C6X1 5593-6110): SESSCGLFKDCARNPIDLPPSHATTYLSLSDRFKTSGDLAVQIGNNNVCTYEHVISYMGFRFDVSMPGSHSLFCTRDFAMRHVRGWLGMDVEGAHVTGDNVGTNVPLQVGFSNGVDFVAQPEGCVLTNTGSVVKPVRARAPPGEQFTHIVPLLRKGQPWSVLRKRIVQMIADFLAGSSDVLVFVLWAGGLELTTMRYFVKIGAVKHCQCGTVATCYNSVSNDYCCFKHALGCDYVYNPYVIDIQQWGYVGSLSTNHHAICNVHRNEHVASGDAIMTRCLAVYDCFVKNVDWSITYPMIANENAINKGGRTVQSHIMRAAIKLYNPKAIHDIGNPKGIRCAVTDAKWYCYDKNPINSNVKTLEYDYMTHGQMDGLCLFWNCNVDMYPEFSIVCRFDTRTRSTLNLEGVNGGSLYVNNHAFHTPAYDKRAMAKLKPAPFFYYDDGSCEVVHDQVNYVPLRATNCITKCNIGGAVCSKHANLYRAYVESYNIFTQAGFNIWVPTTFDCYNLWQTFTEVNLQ
HCoV-NL63 nsp14, sequence (P0C6X5 5568-6085): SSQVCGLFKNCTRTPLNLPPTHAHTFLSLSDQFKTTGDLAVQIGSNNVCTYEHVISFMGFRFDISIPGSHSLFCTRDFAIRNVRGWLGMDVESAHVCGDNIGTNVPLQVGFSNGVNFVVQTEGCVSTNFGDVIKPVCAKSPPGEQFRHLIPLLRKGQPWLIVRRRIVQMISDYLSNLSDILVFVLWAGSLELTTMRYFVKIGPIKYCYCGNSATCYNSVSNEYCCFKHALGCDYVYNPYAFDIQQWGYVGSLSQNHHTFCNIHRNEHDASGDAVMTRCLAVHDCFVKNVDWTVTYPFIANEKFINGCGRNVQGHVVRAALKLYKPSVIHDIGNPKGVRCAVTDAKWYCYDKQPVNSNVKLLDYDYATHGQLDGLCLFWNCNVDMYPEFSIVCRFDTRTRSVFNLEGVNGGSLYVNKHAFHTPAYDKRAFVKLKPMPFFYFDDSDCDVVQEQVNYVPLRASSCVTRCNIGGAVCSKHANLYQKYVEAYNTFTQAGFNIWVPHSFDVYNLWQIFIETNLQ
T4 sequence (K9N7C7 5909-6432 limits assumed): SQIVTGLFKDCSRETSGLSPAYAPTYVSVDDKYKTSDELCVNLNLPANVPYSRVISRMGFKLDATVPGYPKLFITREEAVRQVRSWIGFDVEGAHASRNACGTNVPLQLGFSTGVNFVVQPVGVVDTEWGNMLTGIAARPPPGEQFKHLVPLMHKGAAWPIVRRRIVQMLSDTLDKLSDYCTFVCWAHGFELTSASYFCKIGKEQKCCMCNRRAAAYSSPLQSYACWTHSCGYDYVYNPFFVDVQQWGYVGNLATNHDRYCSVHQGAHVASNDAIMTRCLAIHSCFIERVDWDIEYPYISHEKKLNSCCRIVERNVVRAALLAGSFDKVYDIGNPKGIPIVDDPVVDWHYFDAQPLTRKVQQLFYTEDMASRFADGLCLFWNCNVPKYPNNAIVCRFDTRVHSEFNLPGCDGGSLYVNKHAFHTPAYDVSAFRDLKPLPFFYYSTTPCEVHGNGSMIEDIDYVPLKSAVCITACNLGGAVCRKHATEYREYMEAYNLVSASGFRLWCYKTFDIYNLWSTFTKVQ

SMILES | logD (physchem [1]) | IC50 (SARS-CoV-2 nsp14; read-out: IC50) [nM] | half-life (in vitro [3]) [min] | IC50 (human RNMT [4]) [nM] | IC50 (HCoV-NL63 nsp14; read-out: IC50) [nM] | IC50 (HCoV-229E nsp14; read-out: IC50) [nM] | also measured
O[C@@H]1[C@H](O)[C@@H](CSc2nc3ccccc3s2)O[C@H]1n1cnc2c(NC3COC3)ncnc21 [compound 22] | 1.4 |  |  |  |  |  | 
Nc1ncnc2c1ncn2[C@@H]1O[C@H](CCc2nc3ccccc3s2)[C@@H](O)[C@H]1O [compound 25] | 1 | 310 ± 70 | > 30 |  |  |  | IC50 (human RNMT [2]): > 100000 nM
Nc1ncnc2c1ncn2[C@@H]1O[C@H](COc2nc3ccccc3s2)[C@@H](O)[C@H]1O [compound 23] | 0.5 | > 100000 |  |  |  |  | IC50 (human RNMT [2]): > 100000 nM
CC(C)Nc1ncnc2c1ncn2[C@@H]1O[C@H](CSc2nc3ccccc3s2)[C@@H](O)[C@H]1O [compound 21] | 2.1 | > 100000 |  |  |  |  | IC50 (human RNMT [2]): > 100000 nM
OC1C(CSc2nc3ccccc3s2)OC(n2cnc3c(NC4CCCC4)ncnc32)C1O (stereo not drawn) [compound 20] | 2.5 |  |  |  |  |  | IC50 (SARS-CoV-2 nsp14; [13]): > 100000 nM
Nc1ncnc2c1ncn2[C@@H]1O[C@H](CNS(=O)(=O)c2ccc3ccccc3c2)[C@@H](O)[C@H]1O [compound 32] |  | 130 ± 40 |  | > 100000 | 530 ± 120 | 300 ± 10 | logD (physchem [5]): 1.5; Papp (in vitro [6]): 1.2 ×10⁻⁶ cm/s
Nc1ncnn2c([C@@H]3O[C@H](CNS(=O)(=O)c4ccc5ccccc5c4)[C@@H](O)[C@H]3O)ccc12 [compound 34] |  | 170 ± 30 |  | 27700 | 760 ± 310 | 320 ± 10 | logD (physchem [5]): 1.6; Papp (in vitro [7]): 1 ×10⁻⁶ cm/s
Nc1ncnc2c1ncn2[C@@H]1C[C@H](CSc2nc3ccccc3s2)[C@@H](O)[C@H]1O [compound 26] |  | 53 ± 30 | > 30 | > 100000 | 8 ± 3 | 21 ± 4 | logD (physchem [5]): 1.5; IC50 (MERS-CoV nsp14): 730 nM
Nc1ncnc2c1ncn2[C@@H]1O[C@H](CNc2nc3ccccc3s2)[C@@H](O)[C@H]1O [compound 24] | 0.7 | > 100000 |  | 54600 |  |  | 
Nc1ncnn2c([C@@H]3O[C@H](/C=C/c4nc5ccccc5s4)[C@@H](O)[C@H]3O)ccc12 [compound 40] |  | 83 ± 100 |  |  | 13 ± 6 | 49 ± 1 | logD (physchem [5]): 1.5; Papp (in vitro [7]): 12.8 ×10⁻⁶ cm/s
Nc1ncnc2c1ncn2[C@@H]1O[C@H](CNS(=O)(=O)c2ccc3ccccc3c2)[C@@H](O)[C@H]1O [compound 32, N-[[(2R,3S,4R,5R)-5-(6-Aminopurin-9-yl)-3,4-dihydroxy-tetrahydrofuran-2-yl]methyl]naphthalene-2-sulfonamide] |  |  | > 30 |  |  |  | solubility (physchem [8]): 213 µM (≈ 97.2 µg/mL); EC50 (SARS-CoV-2 [9]): > 100000 nM; CC50 (in vitro [10]): > 100000 nM
Nc1ncnn2c([C@@H]3O[C@H](/C=C/c4nc5ccccc5s4)[C@@H](O)[C@H]3O)ccc12 [compound 40, (2S,3R,4S,5R)-2-(4-aminopyrrolo[2,1-f][1,2,4]triazin-7-yl)-5-[(E)-2-(1,3-benzothiazol-2-yl)vinyl]tetrahydrofuran-3,4-diol] |  |  | > 30 |  |  |  | solubility (physchem [8]): 4.7 µM (≈ 1.86 µg/mL); EC50 (SARS-CoV-2 [11]): > 10000 nM; CC50 (in vitro [10]): > 10000 nM
CN(C)c1ncnc2c1ncn2[C@@H]1O[C@H](CSc2nc3ccccc3s2)[C@@H](O)[C@H]1O [compound 19] | 1.8 |  |  |  |  |  | IC50 (SARS-CoV-2 nsp14; [13]): > 100000 nM
CNc1ncnc2c1ncn2[C@@H]1O[C@H](CSc2nc3ccccc3s2)[C@@H](O)[C@H]1O [compound 18] | 1.3 | 2100 ± 200 |  |  |  |  | 
Nc1ncnc2c1ncn2[C@@H]1O[C@H](/C=C/c2nc3ccccc3s2)[C@@H](O)[C@H]1O [compound 33, (2R,3R,4S,5R)-2-(6-Aminopurin-9-yl)-5-[(E)-2-(1,3-benzothiazol-2-yl)vinyl]tetrahydrofuran-3,4-diol] |  |  | > 30 |  |  |  | solubility (physchem [8]): 18.2 µM (≈ 7.22 µg/mL); EC50 (SARS-CoV-2 [9]): 8700 nM; CC50 (in vitro [10]): 21000 nM
Nc1ncnc2c1ncn2[C@@H]1O[C@H](CSc2ccc3cccnc3c2)[C@@H](O)[C@H]1O [compound 10] |  | 360 ± 110 | > 30 | > 100000 | 170 ± 40 | 580 ± 100 | logD (physchem [12]): 0.6
Nc1ncnc2c1ncn2[C@@H]1O[C@H](CSc2nc3ccccc3s2)[C@@H](O)[C@H]1O [compound 1] |  | 420 ± 300 | > 30 | > 100000 | 190 ± 30 | 310 ± 8 | logD (physchem [12]): 1.2
Nc1ncnc2c1ncn2[C@@H]1O[C@H](/C=C/c2nc3ccccc3s2)[C@@H](O)[C@H]1O [compound 33] |  | 36 ± 10 |  | > 100000 | 17 ± 1 | 51 ± 9 | logD (physchem [5]): 1.3; Papp (in vitro [6]): 4.9 ×10⁻⁶ cm/s
Cc1ccc2nc(SC[C@H]3O[C@@H](n4cnc5c(N)ncnc54)[C@H](O)[C@@H]3O)ccc2c1 [compound 8] |  |  | > 30 | > 100000 |  |  | logD (physchem [12]): 1.7; IC50 (HCoV-NL63 nsp14): 520 ± 10 nM; IC50 (SARS-CoV-2 nsp14): 1100 ± 70 nM; IC50 (HCoV-229E nsp14): 1900 ± 100 nM
Nc1ncnn2c([C@@H]3O[C@H](CNS(=O)(=O)c4ccc5ccccc5c4)[C@@H](O)[C@H]3O)ccc12 [compound 34, N-[[(2R,3S,4R,5S)-5-(4-Aminopyrrolo[2,1-f][1,2,4]triazin-7-yl)-3,4-dihydroxy-tetrahydrofuran-2-yl]methyl]naphthalene-2-sulfonamide] |  |  | 9.9 |  |  |  | solubility (physchem [8]): 226 µM (≈ 103 µg/mL); EC50 (SARS-CoV-2 [11]): 30000 nM; CC50 (in vitro [10]): > 100000 nM
